Assay type in all cases: cell-based
Assay [1] addresses T1, Voltage-gated inwardly rectifying potassium channel KCNH2 (Homo sapiens, UniProt Q12809, Y652A). Description: Binding affinity to human ERG Y652A tetrameric mutant expressed in HEK293 cells assessed as inhibition of tail current measured upon repolarization to -40 mV by patch clamp method.
The target of assay [2] is Voltage-gated inwardly rectifying potassium channel KCNH2 (Homo sapiens, UniProt Q12809). As to the kind of experiment: Binding affinity to wild type human ERG expressed in HEK293 cells assessed as inhibition of tail current measured upon repolarization to -40 mV by patch clamp method.
Voltage-gated inwardly rectifying potassium channel KCNH2 (Homo sapiens, UniProt Q12809), sequence (Q12809 whole entry): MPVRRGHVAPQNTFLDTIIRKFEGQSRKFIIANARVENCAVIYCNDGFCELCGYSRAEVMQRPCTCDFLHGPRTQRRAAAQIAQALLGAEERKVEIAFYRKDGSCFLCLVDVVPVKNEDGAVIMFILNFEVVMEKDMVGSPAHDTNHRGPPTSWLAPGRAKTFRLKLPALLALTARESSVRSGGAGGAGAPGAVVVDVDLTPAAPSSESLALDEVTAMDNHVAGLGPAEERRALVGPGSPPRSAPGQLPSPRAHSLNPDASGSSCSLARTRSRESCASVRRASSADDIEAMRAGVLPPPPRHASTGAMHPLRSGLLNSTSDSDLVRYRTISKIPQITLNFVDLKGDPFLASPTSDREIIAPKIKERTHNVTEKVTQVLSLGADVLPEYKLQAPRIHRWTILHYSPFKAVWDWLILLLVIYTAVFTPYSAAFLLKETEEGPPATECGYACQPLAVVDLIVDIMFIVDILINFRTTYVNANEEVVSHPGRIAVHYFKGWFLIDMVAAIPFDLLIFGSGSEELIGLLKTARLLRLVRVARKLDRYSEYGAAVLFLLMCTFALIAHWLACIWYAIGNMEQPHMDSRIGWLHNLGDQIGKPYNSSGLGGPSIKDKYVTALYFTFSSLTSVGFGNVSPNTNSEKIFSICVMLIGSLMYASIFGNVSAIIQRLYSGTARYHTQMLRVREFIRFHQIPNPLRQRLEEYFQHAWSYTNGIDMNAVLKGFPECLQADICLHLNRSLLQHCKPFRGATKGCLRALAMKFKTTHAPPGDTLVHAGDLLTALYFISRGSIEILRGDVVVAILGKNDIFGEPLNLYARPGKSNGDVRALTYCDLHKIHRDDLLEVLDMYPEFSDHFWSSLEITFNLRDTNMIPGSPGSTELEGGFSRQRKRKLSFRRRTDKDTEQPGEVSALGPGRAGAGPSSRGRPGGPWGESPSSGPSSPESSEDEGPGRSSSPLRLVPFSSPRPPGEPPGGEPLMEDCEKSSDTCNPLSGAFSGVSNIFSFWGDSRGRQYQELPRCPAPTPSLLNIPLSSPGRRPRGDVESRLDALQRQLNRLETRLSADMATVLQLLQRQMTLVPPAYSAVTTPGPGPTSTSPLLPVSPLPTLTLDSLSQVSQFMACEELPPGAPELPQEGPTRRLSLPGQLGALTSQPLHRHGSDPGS
The target of assay [3] is Voltage-gated inwardly rectifying potassium channel KCNH2 (Homo sapiens, UniProt Q12809, S624A). As to the kind of experiment: Binding affinity to human ERG S624A tetrameric mutant expressed in HEK293 cells assessed as inhibition of tail current measured upon repolarization to -40 mV by patch clamp method. For orientation: The patch-clamp technique gives a direct electrical read-out from membranes.
Voltage-gated inwardly rectifying potassium channel KCNH2 (Homo sapiens, UniProt Q12809, S624A), sequence (Q12809 whole entry S624A): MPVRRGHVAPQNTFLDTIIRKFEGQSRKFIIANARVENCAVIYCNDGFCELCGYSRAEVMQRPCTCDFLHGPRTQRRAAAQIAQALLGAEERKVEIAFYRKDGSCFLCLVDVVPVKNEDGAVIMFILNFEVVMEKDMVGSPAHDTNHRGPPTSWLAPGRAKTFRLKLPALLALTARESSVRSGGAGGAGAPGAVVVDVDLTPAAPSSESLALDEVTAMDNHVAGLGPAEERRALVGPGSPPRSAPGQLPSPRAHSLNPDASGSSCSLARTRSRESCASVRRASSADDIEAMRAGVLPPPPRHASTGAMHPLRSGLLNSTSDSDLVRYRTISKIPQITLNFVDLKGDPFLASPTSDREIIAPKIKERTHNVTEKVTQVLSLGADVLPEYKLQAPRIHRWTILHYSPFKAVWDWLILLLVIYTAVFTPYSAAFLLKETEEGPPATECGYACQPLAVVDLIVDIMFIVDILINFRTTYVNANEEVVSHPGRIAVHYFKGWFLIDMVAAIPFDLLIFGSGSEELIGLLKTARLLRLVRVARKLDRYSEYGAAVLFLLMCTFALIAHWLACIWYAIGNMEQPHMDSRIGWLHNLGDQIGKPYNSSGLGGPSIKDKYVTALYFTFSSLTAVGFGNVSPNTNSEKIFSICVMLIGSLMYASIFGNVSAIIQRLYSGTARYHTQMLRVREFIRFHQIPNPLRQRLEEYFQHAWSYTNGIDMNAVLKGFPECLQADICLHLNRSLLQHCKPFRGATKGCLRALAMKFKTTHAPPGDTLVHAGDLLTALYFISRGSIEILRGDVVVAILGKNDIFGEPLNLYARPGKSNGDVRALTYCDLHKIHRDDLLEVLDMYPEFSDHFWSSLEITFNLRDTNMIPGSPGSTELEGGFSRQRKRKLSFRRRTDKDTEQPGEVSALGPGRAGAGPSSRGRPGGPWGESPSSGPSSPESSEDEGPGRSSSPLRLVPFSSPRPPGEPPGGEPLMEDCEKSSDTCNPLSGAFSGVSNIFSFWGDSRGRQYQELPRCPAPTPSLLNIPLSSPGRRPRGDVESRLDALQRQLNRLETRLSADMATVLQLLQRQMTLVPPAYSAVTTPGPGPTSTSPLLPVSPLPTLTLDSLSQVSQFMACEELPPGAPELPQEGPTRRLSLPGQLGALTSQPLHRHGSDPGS

For assay [4], the target named is T2, Voltage-gated inwardly rectifying potassium channel KCNH2 (Homo sapiens, UniProt Q12809, F656A). Description: Binding affinity to human ERG F656A tandem dimeric mutant expressed in HEK293 cells assessed as inhibition of tail current measured upon repolarization to -120 mV by patch clamp method.
T2 sequence (Q12809 whole entry F656A): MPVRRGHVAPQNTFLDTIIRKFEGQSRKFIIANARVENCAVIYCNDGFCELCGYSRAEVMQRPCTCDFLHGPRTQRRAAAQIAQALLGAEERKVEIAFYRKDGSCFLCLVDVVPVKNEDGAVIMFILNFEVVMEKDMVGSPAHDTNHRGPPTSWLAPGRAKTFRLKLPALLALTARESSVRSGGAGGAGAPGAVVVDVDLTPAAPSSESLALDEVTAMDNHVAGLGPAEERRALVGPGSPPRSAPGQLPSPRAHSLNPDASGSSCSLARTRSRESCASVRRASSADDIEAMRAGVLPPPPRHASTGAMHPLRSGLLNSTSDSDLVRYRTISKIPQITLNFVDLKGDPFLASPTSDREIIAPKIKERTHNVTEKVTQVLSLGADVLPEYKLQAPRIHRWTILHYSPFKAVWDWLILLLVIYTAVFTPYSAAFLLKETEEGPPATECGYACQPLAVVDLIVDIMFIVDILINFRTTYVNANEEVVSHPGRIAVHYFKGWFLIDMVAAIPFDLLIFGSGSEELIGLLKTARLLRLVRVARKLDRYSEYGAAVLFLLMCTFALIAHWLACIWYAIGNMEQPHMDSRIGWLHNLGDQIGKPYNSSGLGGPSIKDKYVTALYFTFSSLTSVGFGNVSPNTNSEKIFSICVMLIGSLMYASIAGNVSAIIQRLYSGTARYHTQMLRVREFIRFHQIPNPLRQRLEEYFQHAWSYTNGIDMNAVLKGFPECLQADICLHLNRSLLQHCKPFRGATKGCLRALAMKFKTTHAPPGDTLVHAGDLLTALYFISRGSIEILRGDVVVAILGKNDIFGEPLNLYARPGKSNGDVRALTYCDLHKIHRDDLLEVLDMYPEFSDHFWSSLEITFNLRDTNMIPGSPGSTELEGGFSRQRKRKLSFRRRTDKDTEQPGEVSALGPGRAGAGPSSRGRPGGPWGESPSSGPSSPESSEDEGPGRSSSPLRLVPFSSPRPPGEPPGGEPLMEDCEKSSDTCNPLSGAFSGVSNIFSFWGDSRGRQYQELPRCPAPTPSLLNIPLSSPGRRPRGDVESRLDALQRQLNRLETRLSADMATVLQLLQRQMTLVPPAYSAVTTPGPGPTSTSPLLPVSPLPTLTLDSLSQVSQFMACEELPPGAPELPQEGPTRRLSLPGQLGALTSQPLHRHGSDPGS
Assay [5] concerns the target T2, Voltage-gated inwardly rectifying potassium channel KCNH2. Description: Binding affinity to human ERG F656A tetrameric mutant expressed in HEK293 cells assessed as inhibition of tail current measured upon repolarization to -120 mV by patch clamp method.
For assay [6], the target named is T1, Voltage-gated inwardly rectifying potassium channel KCNH2. Description: Binding affinity to human ERG Y652A tandem dimeric mutant expressed in HEK293 cells assessed as inhibition of tail current measured upon repolarization to -40 mV by patch clamp method.

The values below come from ChEMBL document CHEMBL2396647, “The synergic modeling for the binding of fluoroquinolone antibiotics to the hERG potassium channel” (Bioorg Med Chem Lett, 2013).

pIC50: −log10 of the molar value.

T1 sequence (Q12809 whole entry Y652A): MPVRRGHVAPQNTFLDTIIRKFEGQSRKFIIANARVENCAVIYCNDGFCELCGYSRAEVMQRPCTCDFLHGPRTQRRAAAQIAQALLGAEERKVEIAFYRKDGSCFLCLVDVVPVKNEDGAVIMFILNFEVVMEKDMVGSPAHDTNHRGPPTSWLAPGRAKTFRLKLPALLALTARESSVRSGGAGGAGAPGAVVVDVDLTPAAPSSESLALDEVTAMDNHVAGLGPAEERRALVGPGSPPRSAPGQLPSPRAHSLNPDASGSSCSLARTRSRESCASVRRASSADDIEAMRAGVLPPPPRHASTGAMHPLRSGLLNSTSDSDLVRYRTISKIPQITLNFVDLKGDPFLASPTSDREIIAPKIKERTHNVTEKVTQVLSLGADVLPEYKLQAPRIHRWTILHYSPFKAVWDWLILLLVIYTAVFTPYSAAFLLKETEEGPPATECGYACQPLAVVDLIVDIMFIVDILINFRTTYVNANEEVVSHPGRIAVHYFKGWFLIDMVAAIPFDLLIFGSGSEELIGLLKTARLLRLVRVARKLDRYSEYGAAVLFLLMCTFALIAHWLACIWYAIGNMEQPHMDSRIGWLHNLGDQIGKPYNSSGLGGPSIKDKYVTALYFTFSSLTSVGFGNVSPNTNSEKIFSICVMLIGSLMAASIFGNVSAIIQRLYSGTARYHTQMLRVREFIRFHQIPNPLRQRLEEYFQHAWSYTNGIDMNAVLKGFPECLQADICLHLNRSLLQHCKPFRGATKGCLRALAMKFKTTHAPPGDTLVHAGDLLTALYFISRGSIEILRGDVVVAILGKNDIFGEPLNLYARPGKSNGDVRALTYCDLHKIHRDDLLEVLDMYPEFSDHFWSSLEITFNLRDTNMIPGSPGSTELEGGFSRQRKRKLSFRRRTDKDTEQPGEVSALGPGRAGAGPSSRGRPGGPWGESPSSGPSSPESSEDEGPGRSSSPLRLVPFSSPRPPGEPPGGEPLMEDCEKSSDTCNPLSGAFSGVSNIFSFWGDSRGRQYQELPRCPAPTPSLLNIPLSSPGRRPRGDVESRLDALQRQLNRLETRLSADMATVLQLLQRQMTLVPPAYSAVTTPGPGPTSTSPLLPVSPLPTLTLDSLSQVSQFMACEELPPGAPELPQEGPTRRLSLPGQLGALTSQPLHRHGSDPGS

On to `C[C@@H]1CN(c2c(F)c(N)c3c(=O)c(C(=O)O)cn(C4CC4)c3c2F)C[C@H](C)N1` [SPARFLOXACIN], for which the pIC50 was < 3.60 in assay [1]; 4.66 in assay [2]; 4.33 in assay [3]; 4.47 in assay [4]; < 3.60 in assay [5]; 3.89 in assay [6].

The term pIC50 denotes the negative decadic logarithm of the IC50, by convention in mol/L.
